These results are taken from PubChem BioAssay AID624344 (Sanford-Burnham Center for Chemical Genomics, 2012).

SMILES strings stand for the structures. Active and inactive are the calls of the source. The rule behind the calls is not given here. A value given as a limit tells only on which side of the number the result lay.

Assay [1] deals with Cytotoxicity. As to the kind of experiment: inhibitors of PAF-induced NFkB signaling in CF airway cells, dose response, cell-based, uHTS hits, panel, cytotoxicity readout (AID 624344). The conditions noted are these: CF bronchial epithelial cells, mean of runs.
Assay in assay [2]: as above
The conditions noted are these: CF bronchial epithelial cells, PAF-induced NFkB reporter inhibition; with PAF, mean of runs.

For `CC(=O)Nc1ccc(NC(=O)C(C)OC(=O)c2ccccc2C(=O)c2ccc(Cl)c([N+](=O)[O-])c2)cc1` (configuration not stated), the IC50 in assay [1] was 45.2 µM; in assay [2], 15.3 µM.
The corresponding values for `ON=C1c2ccccc2-c2cc(Br)ccc21` are 41.4 µM and 1.87 µM.
Taken in the same sequence, the figures for `Cc1cccc(C(=O)N[C@H](C(=O)Nc2nc3ccccc3[nH]2)C(C)C)c1` were 19.6 µM and 14.9 µM.
The corresponding values for `O=[N+]([O-])c1cccc(NC(=S)Nc2nc(-c3ccccc3Cl)cs2)c1` are 10.1 µM and 6.59 µM.
Consider `CCc1ccc(N(CC)c2ncnc3nc[nH]c23)cc1`, for which the figures for the IC50 in assay [1] and in assay [2] were > 79 µM (inactive) and 1.82 µM, respectively.
As to `O=C(c1ccccc1)C1OC1C(=O)c1ccccc1` (configuration not stated), the IC50 in assay [1] is 54.5 µM (inactive); in assay [2], 6.25 µM.
For `Cc1ccc(Nc2nc3nonc3[nH]c2=O)cc1Cl`, the IC50 in assay [1] is 15.1 µM; in assay [2], 4.7 µM.
Turning to `CCOc1ccc(C(C(=O)NC2CCCC2)N(C(=O)c2snc(C(N)=O)c2N)c2cccc(O)c2)cc1` (configuration not stated), the results for the IC50 in assay [1] and in assay [2] were 7.27 µM and 4.37 µM, respectively.
Turning to `Cc1ccc(NC(=O)Nc2cccc([N+](=O)[O-])c2)cc1F`, the figures for the half-inhibitory concentration (IC50) in assay [1] and in assay [2] were 3.58 µM and 6.2 µM, respectively.
Turning to `O=C(c1cc([N+](=O)[O-])ccc1N1CCOCC1)N1CCN(c2ccccc2)CC1`, the IC50 in assay [1] is > 79 µM (inactive). For the same compound, the IC50 entry in assay [2] is “inactive”.
Taken in the same sequence, the figures for `Cc1cccc(N2CCN(C(=O)c3[nH]c(C(F)(F)F)nc3-c3ccccc3)CC2)c1C` were > 79 µM (inactive) and 17.8 µM.
As for `O=C(NCCc1ccc(F)cc1)c1coc(=O)c(Br)c1`, the IC50 in assay [1] is 21.2 µM; in assay [2] it was 4.34 µM.
Taken in the same sequence, the figures for `CC(=O)c1c(C)n(-c2ccccc2)c2ccc(O)cc12` were > 79 µM (inactive) and 5.58 µM.
The corresponding values for `COC(=O)C1=C(C(=O)OC)[C@@H]2N(Cc3ccccc3)c3ccccc3[C@@]23C[C@@H](C(=O)OC)N(C(=O)c2ccc(Br)cc2)C3=N1` are 28.5 µM and 5.67 µM.
Taken in the same sequence, the figures for `O=c1[nH]nc(Sc2ncnc3sccc23)n1CCc1ccccc1` were 19 µM and 3.07 µM.
With `NC(=O)c1nsc(C(=O)N(c2ccccc2F)C(C(=O)NCc2ccc(F)cc2)c2ccc(O)cc2)c1N` (configuration not stated), the 50% inhibitory concentration (IC50) in assay [1] was 6.55 µM; in assay [2] it was 2.08 µM.
The corresponding values for `Cc1ccc(-n2cc(-c3ccccc3)c3c(N4CCOCC4)ncnc32)cc1` are 3.85 µM and 3.49 µM.
Taken in the same sequence, the figures for `c1cncc(CNc2ncnc3ccc(-c4ccoc4)cc23)c1` were 50.1 µM (inactive) and 1.39 µM.
In the case of `Cc1ccc(CNc2ncnc(N)c2[N+](=O)[O-])cc1`, the IC50 is 73.3 µM (inactive) in assay [1] and 6.41 µM in assay [2].
The corresponding values for `COc1ccc(-n2cc(-c3ccccc3)c3c(N4CC(C)OC(C)C4)ncnc32)cc1` (configuration not stated) are 3.56 µM and 4.95 µM.
Taken in the same sequence, the figures for `O=S(=O)(c1ccc(Br)cc1)c1cnc2ccccc2n1` were 7.65 µM and 6.57 µM.
As for `C#CCN(C[C@@H]1[C@@H](OC(=O)NC2CC2)[C@@H](OC(=O)NC2CC2)Cn2c(=O)ccc(=O)n21)S(=O)(=O)c1ccc(C)cc1`, the IC50 in assay [1] is 19.2 µM; in assay [2], 2.73 µM.
As to `CC1Cc2ccccc2N1c1ncnc2nc[nH]c12` (configuration not stated), the IC50 in assay [1] was 36.2 µM; in assay [2], 2.46 µM.
As for `Cc1ccccc1C(=O)N1CCN(c2ccc(NC(=O)c3cccc(OC(C)C)c3)cc2)CC1`, the figures for the IC50 in assay [1] and in assay [2] were > 79 µM (inactive) and 6.7 µM, respectively.
Taken in the same sequence, the figures for `C/C=C/COC(=O)c1[nH]c2c(c1C)C(=O)CC(c1ccco1)C2` (configuration not stated) were 52.8 µM (inactive) and “inactive”.
Taken in the same sequence, the figures for `O=C(NCc1nc(-c2ccc(C(F)(F)F)cc2)no1)Nc1cc(Cl)cc(Cl)c1` were 5.56 µM and 5.81 µM.

The term IC50 denotes the midpoint of a concentration-inhibition curve.
